Read-outs that look alike come from different tables or passages of the source.
Legend:
Format in all cases: cell-based
[1] = system: DENV-3 strain H87 prototype; assay: Antiviral activity against DENV-3 in Vero-B cells (viral RNA load by RT-qPCR); conditions: Dengue virus
in vitro = conditions: African green monkey
Experimental: (§1) Potential cytotoxic effects of the compounds were evaluated in uninfected quiescent Vero-B or Vero-M cells. Cells were seeded at 5×10^4 cells/well in a 96-well plate in the presence of two-fold serial dilutions (ranging from 50 μg/mL-0.004 μg/mL) of compound and incubated for 4 to 7 days. Culture medium was discarded and 100 μL 3-(4,5-dimethylthiazol-2-yl)-5-(3-carboxymethoxyphenyl)-2-(4-sulfophenyl)-2H-tetrazolium/phenazinemethosuIfate (MTS/PMS; Promega, Leiden, The Netherlands) in PBS was added to each well. Following a 2-hour incubation period at 37° C., the optical density was determined at 498 nm. Cytotoxic activity was calculated using the following formula: % cell viability=100× (ODcompound/ODCC), where ODcompound and ODCC correspond to the optical density at 498 nm of the uninfected cell cultures treated with compound and that of uninfected, untreated cell cultures, respectively. The 50% cytotoxic concentration (i.e., the concentration that reduces the total cell number with 50%; CC50) was calculated using linear interpolation.

Vero-B cells = assay: in vitro; conditions: African green monkey
Experimental: as §1

DENV-2 NGC = assay: Antiviral activity against DENV-2 in Vero-B cells (viral RNA load by RT-qPCR); conditions: Dengue virus, DENV2, 96 h; DENV-2, Vero-B cells, inhibition of viral RNA replication by 50%, 4 days
[2] = system: DENV-1 Djibouti strain D1/H/IMTSSA/98/606; assay: Antiviral activity against DENV-1 in Vero-B cells (viral RNA load by RT-qPCR); conditions: Dengue virus, DENV1, 168 h; DENV-1, Vero-B cells, inhibition of viral RNA replication by 50%, 7 days
DENV-4 strain H241 = assay: Antiviral activity against DENV-4 in Vero-M cells (viral RNA load by RT-qPCR); conditions: Dengue virus, DENV4, 120 h; DENV-4, Vero-M cells, inhibition of viral RNA replication by 50%, 5 days
[3] = DENV3, 168 h, DENV-3, Vero-B cells, inhibition of viral RNA replication by 50%, 7 days, read-out: EC50

| Structure (SMILES) | EC50 [1, 3] [nM] | CC50 (in vitro; CC50 (μM)) [µM] | CC50 (Vero-B cells) [nM] | EC50 (DENV-2 NGC) [nM] | EC50 [2] [nM] | EC50 (DENV-4 strain H241) [nM] | CC50 (in vitro) [µM] | EC50 ([1]; DENV3, Vero B, 168 h) [nM] |
| --- | --- | --- | --- | --- | --- | --- | --- | --- |
| COc1cccc(NC(C(=O)c2nn(C)cc2-c2ccccc2)c2ccccc2)c1 (stereo not drawn) [CPD-001] | 2120 | > 125 | > 126000 | 323 | 2640 |  |  |  |
| COc1cccc(NC(C(=O)c2nn(C)cc2-c2ccc(F)cc2)c2ccccc2)c1 (stereo not drawn) [CPD-002] | 794 | > 120 | > 120000 | 95 | 2090 | 8210 | > 120 |  |
| COc1cccc(NC(C(=O)c2nn(C)cc2-c2ccccc2)c2cccnc2)c1 (stereo not drawn) [CPD-003] |  | > 125 | 104000 | 1660 | 7010 |  |  |  |
| COc1cccc(NC(C(=O)c2nn(C)cc2-c2ccccc2)c2cncc(F)c2)c1 (stereo not drawn) [CPD-004] |  | > 120 | > 120000 | 1550 | 9780 |  |  |  |
| COc1cccc(NC(C(=O)c2nn(C)cc2-c2ccccc2F)c2ccccc2)c1 (stereo not drawn) [CPD-005] |  | > 120 |  | 383 |  |  |  |  |
| COc1cccc(NC(C(=O)c2nn(C)cc2-c2cccc(F)c2)c2ccccc2)c1 (stereo not drawn) [CPD-006] |  | > 120 |  | 517 |  |  |  |  |
| COc1cccc(NC(C(=O)c2nn(C)cc2-c2cnn(C)c2)c2ccccc2)c1 (stereo not drawn) [CPD-007] |  | > 125 |  | 15500 |  |  |  |  |
| COc1cccc(NC(C(=O)c2nn(C)cc2-c2ccccc2)c2ccc(F)cc2)c1 (stereo not drawn) [CPD-008] | 1010 | > 120 | > 120000 | 96 | 2640 | 4740 | > 120 |  |
| COc1cccc(NC(C(=O)c2nn(C)cc2-c2cncnc2)c2ccc(C)cc2)c1 (stereo not drawn) [CPD-009] |  | > 120 |  | 3290 |  |  |  |  |
| COc1cccc(NC(C(=O)c2nn(C)cc2-c2ccncc2)c2ccc(C)cc2)c1 (stereo not drawn) [CPD-010] |  | > 121 |  | 2110 |  |  |  |  |
| COc1cccc(NC(C(=O)c2nn(C)cc2-c2ccccc2)c2cnc(OC)cn2)c1 (stereo not drawn) [CPD-011] |  | > 116 |  | 745 |  |  |  |  |
| COc1cncc(NC(C(=O)c2nn(C)cc2-c2ccccc2)c2ccc(OC)nc2)c1 (stereo not drawn) [CPD-012] |  | > 116 |  | 71300 |  |  |  |  |
| COc1cccc(NC(C(=O)c2nn(C)cc2-c2ccccc2)c2cc3ccccn3n2)c1 (stereo not drawn) [CPD-013] |  | > 114 | > 114000 | 343 | 2240 |  |  |  |
| COc1cccc(NC(C(=O)c2nn(C)cc2-c2ccc(C#N)cc2)c2cc3ccccn3n2)c1 (stereo not drawn) [CPD-014] |  | > 108 |  | 2290 |  |  |  |  |
| COc1cc(NC(C(=O)c2nn(C)cc2-c2ccccc2)c2ccc(C)cc2)cc(OC)c1 (stereo not drawn) [CPD-015] |  | > 113 | > 113000 | 16 | 132 | 3150 | > 113 | 1190 |
| COc1cccc(NC(C(=O)c2nn(C)cc2-c2ccc3scnc3c2)c2ccc(OC)nc2)c1 (stereo not drawn) [CPD-016] |  | > 103 |  | 1870 |  |  |  |  |

| Structure (SMILES) | EC50 [1, 3] [nM] | CC50 (in vitro; CC50 (μM)) [µM] | CC50 (Vero-B cells) [nM] | EC50 (DENV-2 NGC) [nM] | EC50 [2] [nM] | EC50 (DENV-4 strain H241) [nM] | CC50 (in vitro) [µM] | EC50 ([1]; DENV3, Vero B, 168 h) [nM] |
| --- | --- | --- | --- | --- | --- | --- | --- | --- |
| COc1cccc(NC(C(=O)c2nn(C)cc2-c2ccc3c(c2)CCO3)c2ccc(OC)nc2)c1 (stereo not drawn) [CPD-017] |  | > 106 |  | 1640 |  |  |  |  |
| COc1cccc(NC(C(=O)c2nn(C)cc2-c2cccs2)c2ccc(OC)nc2)c1 (stereo not drawn) [CPD-018] |  | > 115 |  | 1270 |  |  |  |  |
| COc1cccc(NC(C(=O)c2nn(C)cc2-c2ccc(C)nc2)c2ccccc2)c1 (stereo not drawn) [CPD-019] |  | 80 |  | 39900 |  |  |  |  |
| COc1cccc(NC(C(=O)c2nn(C)cc2-c2c(C)noc2C)c2ccc(C)cc2)c1 (stereo not drawn) [CPD-020] |  | > 116 |  | 13200 |  |  |  |  |
| COc1cccc(NC(C(=O)c2n[nH]cc2-c2ccccc2)c2ccccc2)c1 (stereo not drawn) [CPD-023] |  |  |  | 443 | 939 |  |  |  |
| COc1cccc(NC(C(=O)c2c[nH]cc2-c2ccccc2)c2ccccc2)c1 (stereo not drawn) [CPD-024] | 1910 |  |  | 207 | 1530 | 1600 | 10 |  |
| COc1cccc(NC(C(=O)c2cscc2-c2ccccc2)c2ccccc2)c1 (stereo not drawn) [CPD-025] |  | > 125 |  |  | 3630 |  |  |  |
| COc1cccc(NC(C(=O)c2cn(C)nc2-c2ccccc2)c2ccccc2)c1 (stereo not drawn) [CPD-026] |  | > 126 |  |  | 2390 |  |  |  |
| COc1cc(NC(C(=O)N2CCCCC2c2ccccc2)c2ccc(C)cc2)cc(OC)c1 (stereo not drawn) [CPD-027] | 7230 |  |  | 1220 | 2080 |  |  |  |
| COc1cc(NC(C(=O)N2CCCC2c2ccccc2)c2ccc(C)cc2)cc(OC)c1 (stereo not drawn) [CPD-028] |  | > 116 | 70000 | 221 | 17200 | 6670 | > 116 |  |
| COc1cc(NC(C(=O)N2CCN(C)CC2c2ccccc2)c2ccc(C)cc2)cc(OC)c1 (stereo not drawn) [CPD-238] |  | > 99 |  | 2820 |  |  |  |  |
| COc1cc(NC(C(=O)N2CCCCCC2c2ccccc2)c2ccc(C)cc2)cc(OC)c1 (stereo not drawn) [CPD-242] |  | > 109 |  | 1160 |  |  |  |  |
| COc1cc(NC(C(=O)c2cn(C)c(Br)c2-c2ccccc2)c2ccccc2)cc(OC)c1 (stereo not drawn) [CPD-311] | 266 | > 99 | > 99000 | 47 | 16 |  |  |  |
| COc1cc(NC(C(=O)N2CCOCC2c2ccccc2)c2ccc(C)cc2)cc(OC)c1 (stereo not drawn) [CPD-312] |  | > 112 |  | 5650 |  |  |  |  |
| COc1cc(NC(C(=O)N2CCSCC2c2ccccc2)c2ccc(C)cc2)cc(OC)c1 (stereo not drawn) [CPD-313] |  | > 108 |  | 951 |  |  |  |  |
| COc1cc(NC(C(=O)N2CCS(=O)(=O)CC2c2ccccc2)c2ccc(C)cc2)cc(OC)c1 (stereo not drawn) [CPD-314] |  | > 101 |  | 4470 |  |  |  |  |

Reference: patent US11566025B2, “Viral replication inhibitors” (Katholieke Universiteit Leuven, priority 2013, dated 2023)
